One assay has as its system Sphaerotheca cucurbitae. The experiment in a line: Test on preventive effect against cucumber powdery mildew. It is filed as in vivo. Details: scale not given here. As to conditions: applied alone. How it is done:
Cucumber (cultivar: Suyo) was cultivated in a plastic pot having a diameter of 7.5 cm, and when it reached 1.5-leaf stage, 10 ml of a chemical solution having the compound of the present invention adjusted to a prescribed concentration, was applied by a spray gun. After the chemical solution dried, a suspension of conidia of Sphaerotheca cucurbitae was sprayed and inoculated and maintained in a constant temperature chamber at 20° C. From 9 to 10 days after the inoculation, the area of sporulation was investigated, and the disease rate was determined in the same manner as in Test Example 1, and the results are shown in Tables 5 to 20. The average lesion area in the non-treated plot was determined in the same manner as for the treated plot except that water was applied by a spray gun instead of the chemical solution.
Further, theoretical values by the Colby's formula are shown in brackets in Tables 5 to 20.

For another assay, the system named is Erysiphe graminis. The experiment in a line: Test on preventive effect against wheat powdery mildew. In kind it is in vivo. Details: key: lesion area as % of non-treated plot: (treated/non-treated)×100. The following applies: applied alone. How it is done: Wheat (cultivar: Norin-61-go) was cultivated in a plastic pot having a diameter of 7.5 cm, and when it reached 1.5-leaf stage, 10 ml of a chemical solution having each test compound adjusted to a prescribed concentration, was applied by a spray gun in an amount of 1000 L/ha. After the chemical solution dried, conidia of Erysiphe graminis were dusted and inoculated and maintained in a constant temperature chamber at 20° C. From 6 to 8 days after the inoculation, the area of sporulation was investigated, and the disease rate was determined in accordance with the following formula, and the results are shown in Tables 1 to 4. The average lesion area in the non-treated plot was determined in the same manner as for the treated plot except that water was applied by a spray gun instead of the chemical solution. Disease rate=(a/b)×100
a: average lesion area in the treated plot
b: average lesion area in the non-treated plot
Theoretical values were calculated in accordance with the Colby's formula. The fungicidal composition of the present invention has a synergistic effect regarding the test on preventive effect against wheat powdery mildew, when the experimental value is lower than the theoretical value. Theoretical values by the Colby's formula in such cases are shown in brackets in Tables 1 to 4.

Molecules are shown by their SMILES. Where “and” joins values, the source holds several entries; their conditions need not be identical. Equal entries are not always repeated.

Consider `CC(=O)Oc1c(C)c(C)nc2c(F)cc(C(C)(C)C)cc12` [6-t-butyl-8-fluoro-2,3-dimethylquinolin-4-yl acetate], for which the Disease rate in the assay with Sphaerotheca cucurbitae (6.3 ppm) is recorded as 83.6; in the assay with Sphaerotheca cucurbitae (12.5 ppm) it was 63.9; with Sphaerotheca cucurbitae (25 ppm) it was 59.0; with Sphaerotheca cucurbitae (50 ppm), 34.4.
Turning to `CC1COC(Cn2cncn2)(c2ccc(Oc3ccc(Cl)cc3)cc2Cl)O1` (stereo not shown) [Difenoconazole], the Disease rate is listed as 85 in the assay with Erysiphe graminis (12.5 ppm), 70 in the assay with Erysiphe graminis (25 ppm) and 40 in the assay on Erysiphe graminis (50 ppm).
`C/C=C/C(=O)Oc1c(C(C)CCCCCC)cc([N+](=O)[O-])cc1[N+](=O)[O-]` (stereo not shown) [Mepthyldinocap, Meptyldinocap]: the figures for the Disease rate with Sphaerotheca cucurbitae (0.8 ppm), in the assay on Sphaerotheca cucurbitae (1.6 ppm) and in the assay on Sphaerotheca cucurbitae (3.1 ppm) were 75, 60 and 60, respectively.
With `COc1cc(C)c(C(=O)c2c(OC)ncc(Cl)c2C)c(OC)c1OC` [Compound No. 35, 3-(2,3,4-trimethoxy-6-methylbenzoyl)-5-chloro-2-methoxy-4-methylpyridine], the Disease rate in the assay on Erysiphe graminis (0.8 ppm) was 70 and 100; in the assay with Erysiphe graminis (1.6 ppm) it was 70 and 100; with Erysiphe graminis (3.1 ppm) it was 100; in the assay on Erysiphe graminis (6.3 ppm), 60.
Turning to `COC(=O)NCc1cc(/C(C)=N/OCc2cccc(C)n2)ccc1Cl` [Pyribencarb], the Disease rate in the assay with Sphaerotheca cucurbitae (12.5 ppm) worked out at 73.0; in the assay with Sphaerotheca cucurbitae (25 ppm), 63.2; in the assay with Sphaerotheca cucurbitae (50 ppm), 63.2.
As to `COc1cc(C)c(C(=O)c2c(Cl)cnc(Cl)c2C(F)(F)F)c(OC)c1OC` [Compound No. 39, 4-(2,3,4-trimethoxy-6-methylbenzoyl)-2,5-dichloro-3-trifluoromethylpyridine], the Disease rate worked out at 85 in the assay with Erysiphe graminis (1.6 ppm), 75 with Erysiphe graminis (3.1 ppm) and 60 with Erysiphe graminis (6.3 ppm).
For `COc1ccccc1N1CCS/C1=C(/C#N)Sc1cc(C(F)(F)F)ccc1F` [flutianil], the values for the Disease rate in the assay with Sphaerotheca cucurbitae (0.0063 ppm), in the assay with Sphaerotheca cucurbitae (0.0125 ppm) and in the assay on Sphaerotheca cucurbitae (0.025 ppm) were 95, 85 and 65, respectively.
With `CC1CCN(C2C(c3c(F)cc(F)cc3F)=C(Cl)N=C3N=CNN32)CC1` (stereo not shown) [the compound of the formula (II)], the results for the Disease rate in the assay with Sphaerotheca cucurbitae (0.8 ppm), in the assay on Sphaerotheca cucurbitae (3.1 ppm) and with Sphaerotheca cucurbitae (6.3 ppm) were 88.1, 17.2 and 8.6, respectively.
Regarding `S1SSSSSSS1` [sulfur, Sulfur], the Disease rate was 98.0 with Sphaerotheca cucurbitae (6.3 ppm), 88.2 with Sphaerotheca cucurbitae (12.5 ppm) and 68.6 in the assay on Sphaerotheca cucurbitae (25 ppm).
Consider `COc1cc(C)c(C(=O)c2c(OC)cnc(Cl)c2C(F)(F)F)c(OC)c1OC` [Compound No. 40, 4-(2,3,4-trimethoxy-6-methylbenzoyl)-2-chloro-3-trifluoromethyl-5-methoxypyridine], for which the Disease rate in the assay on Erysiphe graminis (0.8 ppm) was found to be 50; in the assay on Sphaerotheca cucurbitae (1.6 ppm) it was 43.0.
With `CC(C)CC(C)c1sccc1NC(=O)c1cn(C)nc1C(F)(F)F` (stereo not shown) [Penthiopyrad], the values for the Disease rate in the assay with Sphaerotheca cucurbitae (0.4 ppm), with Sphaerotheca cucurbitae (0.8 ppm) and in the assay with Sphaerotheca cucurbitae (1.6 ppm) were 77.4, 51.6 and 17.2, respectively.
Consider `COC(=O)N(OC)c1ccccc1COc1ccn(-c2ccc(Cl)cc2)n1` [Pyraclostrobin], for which the Disease rate in the assay on Erysiphe graminis (100 ppm), in the assay on Erysiphe graminis (200 ppm) and in the assay on Erysiphe graminis (400 ppm) was 100 each time.
Turning to `O=C(Nc1ccccc1-c1ccc(Cl)cc1)c1cccnc1Cl` [Boscalid], the results for the Disease rate with Sphaerotheca cucurbitae (6.3 ppm), in the assay on Sphaerotheca cucurbitae (12.5 ppm) and with Sphaerotheca cucurbitae (25 ppm) were 43.0, 43.0 and 25.8, respectively.
